Experimental data as given in patent US8648076B2, “Cysteine protease inhibitors and their therapeutic applications” (Hybrigenics SA, priority 2005, dated 2014).
pIC50: −log10 of the molar value. Read-outs that look alike come from different tables or passages of the source.

Columns and labels:
[1] = system: PC-3 prostate cancer cells; assay: PC3 cell viability and proliferation assay (MTS); assay type: cell-based; details: Homo sapiens, PC-3, 72 h, read-out: PC3 D3 GI50
[2] = molecular target: T1, USP5 (Homo sapiens, UniProt P45974); assay: USP5 activity assay; assay type: biochemical; details: 400 nM Ub-AMC, 300 pM enzyme, 30 min pre-incubation at 25° C., 60 min at 37° C.; sigmoidal fit; AF: Autofluorescent; read-out: USP 5 (inhibition of cysteine protease activity)
T1 sequence (P45974 1-858): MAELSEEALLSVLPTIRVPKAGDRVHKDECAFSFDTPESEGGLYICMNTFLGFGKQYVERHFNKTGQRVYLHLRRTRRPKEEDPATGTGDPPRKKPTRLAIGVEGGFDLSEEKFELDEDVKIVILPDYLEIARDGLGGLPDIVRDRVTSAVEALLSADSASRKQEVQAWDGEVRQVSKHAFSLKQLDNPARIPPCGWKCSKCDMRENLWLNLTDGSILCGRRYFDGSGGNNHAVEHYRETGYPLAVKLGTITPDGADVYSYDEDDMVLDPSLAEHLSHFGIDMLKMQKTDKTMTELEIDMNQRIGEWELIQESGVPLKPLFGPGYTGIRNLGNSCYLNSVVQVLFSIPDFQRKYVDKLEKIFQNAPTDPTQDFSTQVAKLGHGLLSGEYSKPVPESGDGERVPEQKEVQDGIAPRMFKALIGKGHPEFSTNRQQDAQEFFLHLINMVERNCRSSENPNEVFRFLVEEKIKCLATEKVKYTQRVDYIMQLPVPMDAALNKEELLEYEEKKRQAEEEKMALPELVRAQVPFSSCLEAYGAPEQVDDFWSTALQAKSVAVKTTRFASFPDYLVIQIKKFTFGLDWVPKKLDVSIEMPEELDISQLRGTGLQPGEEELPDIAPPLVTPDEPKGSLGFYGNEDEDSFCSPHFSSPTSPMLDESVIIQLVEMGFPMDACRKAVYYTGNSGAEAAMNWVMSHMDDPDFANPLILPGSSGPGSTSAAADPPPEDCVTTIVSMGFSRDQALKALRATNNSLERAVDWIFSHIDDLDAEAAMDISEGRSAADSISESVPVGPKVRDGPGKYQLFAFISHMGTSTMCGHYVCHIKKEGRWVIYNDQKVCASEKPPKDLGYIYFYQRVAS
Procedure: Bovine Serum Albumin 0.05 mg·ml^−1 pH7.6). Compounds stocks (100 mM) were stored at −20° C. in DMSO. […] Reactions were performed as duplicates in Black LJL 96 well plates (HE microplates; Molecular Devices; 20 μl final reaction volume). The substrate concentration for USP5 was 400 nM Ub-AMC (Boston Biochem). The concentrations of the enzyme (USP5) in specificity assays was 300 pM. The concentrations were determined in order to perform specificity assays under initial velocities at fixed substrate concentration. Compounds were pre-incubated with enzymes for 30 minutes at 25° C. Reactions were initiated by addition of substrate to the plates containing the enzymes (+/− compounds) diluted in assay buffer. Reactions were incubated for 60 minutes at 37° C. Reactions were stopped by adding acetic acid (100 mM final). Readings were performed on a Pherastar Fluorescent Reader (BMG). λ Emission 380 nm; λ Excitation=460 nm. Data (mean values +/− standard deviation) were analyzed as % of control (no compound) and plotted as percentage versus the Log of the compound concentration using GraphPad (Prism). Data were fitted to a sigmoidal model (variable slope).

[3] = system: HCT116 colon cancer cells; assay: HCT116 cell viability and proliferation assay (MTS); assay type: cell-based; details: Homo sapiens, read-out: HCT116 D3 GI50
[4] = molecular target: T2, USP8 (Homo sapiens, UniProt P40818); assay: USP8 activity assay; assay type: biochemical; details: 400 nM Ub-AMC, pH8.8, 30 min pre-incubation at 25° C., 60 min at 37° C.; sigmoidal fit; AF: Autofluorescent; read-out: USP 8 (inhibition of cysteine protease activity)
T2 sequence (P40818 1-1118): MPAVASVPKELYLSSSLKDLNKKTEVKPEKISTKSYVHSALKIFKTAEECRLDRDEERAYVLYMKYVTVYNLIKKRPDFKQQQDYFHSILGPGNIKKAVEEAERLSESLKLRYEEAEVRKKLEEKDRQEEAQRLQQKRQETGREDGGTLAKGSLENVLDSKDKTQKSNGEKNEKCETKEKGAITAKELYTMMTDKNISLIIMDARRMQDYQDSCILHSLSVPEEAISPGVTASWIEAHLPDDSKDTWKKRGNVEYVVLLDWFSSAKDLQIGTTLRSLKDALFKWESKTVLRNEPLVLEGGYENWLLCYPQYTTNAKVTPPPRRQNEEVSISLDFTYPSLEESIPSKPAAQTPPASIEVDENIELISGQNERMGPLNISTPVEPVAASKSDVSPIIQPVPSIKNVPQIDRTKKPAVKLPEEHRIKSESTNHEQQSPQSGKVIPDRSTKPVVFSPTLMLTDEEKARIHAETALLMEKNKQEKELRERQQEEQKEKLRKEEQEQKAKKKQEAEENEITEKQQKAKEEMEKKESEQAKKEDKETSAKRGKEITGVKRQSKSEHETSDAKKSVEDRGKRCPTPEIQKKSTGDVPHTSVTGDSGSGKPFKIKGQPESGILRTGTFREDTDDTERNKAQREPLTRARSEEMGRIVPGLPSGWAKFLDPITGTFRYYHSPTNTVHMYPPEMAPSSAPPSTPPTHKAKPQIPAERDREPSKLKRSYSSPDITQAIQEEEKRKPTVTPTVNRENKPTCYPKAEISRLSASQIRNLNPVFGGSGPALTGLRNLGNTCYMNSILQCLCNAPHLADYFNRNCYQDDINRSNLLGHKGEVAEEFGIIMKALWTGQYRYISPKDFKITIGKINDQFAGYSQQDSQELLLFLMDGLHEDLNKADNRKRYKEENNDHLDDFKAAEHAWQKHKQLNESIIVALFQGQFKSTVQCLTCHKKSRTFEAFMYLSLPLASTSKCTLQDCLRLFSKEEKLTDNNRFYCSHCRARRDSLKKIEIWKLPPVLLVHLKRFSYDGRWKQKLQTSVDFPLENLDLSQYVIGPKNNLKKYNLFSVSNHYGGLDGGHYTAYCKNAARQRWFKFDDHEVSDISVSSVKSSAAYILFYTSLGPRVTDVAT

[5] = PC3 cells, 72 hours incubation, MTS, mean of 3 independent experiments
[6] = HCT-116, HCT116 cells, 72 hours incubation, MTS, mean of 3 independent experiments

Compound	GI50 [1]	pIC50 [2]	GI50 ([3]; HCT-116, 72 h)	pIC50 [4]	GI50 [1, 5]	GI50 [3, 6]
CON=C1c2ccccc2-c2nc(C#N)c(C#N)nc21 [Example 13a, 9-(methoxyimino)-9H-indeno[1,2-b]pyrazine-2,3-dicarbonitrile]	430 nM	4.71	390 nM	6.01	–	–
N#Cc1nc2c(nc1C(N)=O)-c1ccccc1C2=O [Example 36, 2-cyano-9-oxo-9H-indeno[1,2-b]pyrazine-3-carboxylic acid amide]	–	6.68	4250 nM	6.69	–	–
N#Cc1nc2c(nc1C#N)-c1ccccc1C2=Nc1ccccc1 (mixture of isomers) [Example 14, 9-[phenylimino]-9H-indeno[1,2-b]pyrazine-2,3-dicarbonitrile]	–	5.72	–	6.46	510 nM	430 nM
CCO/C(O)=C(\C#N)c1nc2c(nc1C#N)C(=O)c1ccccc1-2 [Example 22, 3-(1-cyano-2-ethoxy-2-hydroxy-vinyl)-9-oxo-9H-indeno[1,2-b]pyrazine-2-carbonitrile]	–	< 4.00	–	–	> 10000 nM	> 10000 nM
N#Cc1nc2c(nc1C#N)-c1ccccc1C2=NOCCOc1ccccc1 [Example 27a, 9-(2-Phenoxy-ethoxyimino)-9H-indeno[1,2-b]pyrazine-2,3-dicarbonitrile]	1000 nM	< 4.00	549 nM	5.64	–	–
N#Cc1nc2c(nc1C#N)-c1ccccc1C2=O [Example 1, 9-oxo-9H-indeno[1,2-b]pyrazine-2,3-dicarbonitrile]	–	5.89	–	6.54	610 nM	150 nM
N#Cc1nc2c(nc1C#N)-c1ccccc1/C2=N/Oc1ccccc1 [Example 13e, 9-Phenoxyimino-9H-indeno[1,2-b]pyrazine-2,3-dicarbonitrile]	–	4.49	–	6.62	530 nM	540 nM
CCOC(=O)CO/N=C1\c2ccccc2-c2nc(C(N)=O)c(C#N)nc21 [Example 37, (3-carbamoyl-2-cyano-indeno[1,2-b]pyrazin-9-ylideneaminooxy)-acetic acid ethyl ester]	–	6.10	–	6.70	–	652 nM
N#Cc1nc2c(nc1C#N)-c1ccc(Cl)cc1C2=O [Example 17g, 7-Chloro-9-oxo-9H-indeno[1,2-b]pyrazine-2,3-dicarbonitrile]	–	6.80	–	7.02	1110 nM	320 nM
C=CCON=C1c2ccc(Cl)cc2-c2nc(C#N)c(C#N)nc21 [Example 27c, 9-Allyloxyimino-6-chloro-9H-indeno[1,2-b]pyrazine-2,3-dicarbonitrile]	803 nM	5.77	421 nM	6.70	–	–
Cc1ccc2c(c1)-c1nc(C#N)c(C#N)nc1C2=O [Example 17e, 6-Methyl-9-oxo-9H-indeno[1,2-b]pyrazine-2,3-dicarbonitrile]	–	5.11	–	6.03	1320 nM	300 nM
N#Cc1nc2c(nc1C#N)-c1ccc(O)cc1C2=O [Example 17j, 7-Hydroxy-9-oxo-9H-indeno[1,2-b]pyrazine-2,3-dicarbonitrile]	–	< 4.00	–	< 4.00	> 10000 nM	> 10000 nM
Cc1c(F)ccc2c1C(=O)c1nc(C#N)c(C#N)nc1-2 [Example 30, 7-Fluoro-8-methyl-9-oxo-9H-indeno[1,2-b]pyrazine-2,3-dicarbonitrile]	–	5.79	–	6.50	854 nM	705 nM
CCSc1nc2c(nc1C#N)C(=O)c1ccccc1-2 [Example 23, 3-ethylsulfanyl-9-oxo-9H-indeno[1,2-b]pyrazine-2-carbonitrile]	–	< 4.00	–	4.34	> 10000 nM	> 10000 nM
N#Cc1nc2sc3ccccc3c2nc1C#N [Example 19, benzo[4,5]thieno[2,3-b]pyrazine-2,3-dicarbonitrile]	–	< 4.00	–	< 4.00	4200 nM	10000 nM
N#Cc1nc2c(nc1C(N)=O)-c1ccccc1/C2=N\OCC(=O)O [Example 38, (3-carbamoyl-2-cyano-indeno[1,2-b]pyrazin-9-ylideneaminooxy)-acetic acid]	–	5.73	> 10000 nM	6.57	–	–
C=CCON=C1c2ccccc2-c2nc(C#N)c(C#N)nc21 (mixture of isomers) [Example 13b, 9-(Allyloxyimino)-9H-indeno[1,2-b]pyrazine-2,3-dicarbonitrile]	540 nM	< 4.00	580 nM	6.25	–	–
CCON=C1c2ccccc2-c2nc(C#N)c(C#N)nc21 (mixture of isomers) [Example 13d, 9-Ethoxyimino-9H-indeno[1,2-b]pyrazine-2,3-dicarbonitrile]	–	< 4.00	–	–	1540 nM	1180 nM
N#Cc1nc2c(nc1C(N)=O)-c1ccccc1/C2=N\OCC(=O)NCC(=O)O [Example 41, [2-(3-carbamoyl-2-cyano-indeno[1,2-b]pyrazin-9-ylideneaminooxy)-acetylamino]-acetic acid]	–	5.72	> 10000 nM	6.93	–	–
CCOC(=O)CNC(=O)CO/N=C1\c2ccccc2-c2nc(C(N)=O)c(C#N)nc21 [Example 40, [2-(3-carbamoyl-2-cyano-indeno[1,2-b]pyrazin-9-ylideneaminooxy)-acetylamino]-acetic acid ethyl ester]	–	5.95	–	6.81	–	4600 nM
